Experimental findings from patent US9155752B2, “Liver function-improving agent” (UENO FINE CHEMICALS INDUSTRY, LTD., priority 2012, dated 2015) are described below.

The subject of experiment [1] is C57BL/6 male mice fed high fat diet. The experiment can be described thus: Blood ketone bodies value after 8-week feeding (Test Example 1). Particulars: for Blood ketone bodies value (Mean ± Standard error): 8 weeks. The arrangement: key to Blood ketone bodies value, Significant difference: *: a significant difference was observed at 1% level of significance relative to group 3. The experiment is classed as in vivo. The text has this:
Eight-week-old C57BL/6 male mice (CLEA Japan, Inc.) were divided at random into groups (each group: four animals) and then used. As a normal diet, solid diet MF (lipid component 5.3%, manufactured by Oriental Yeast Co., Ltd.) was used. As a high-fat diet, solid diet High Fat Diet 32 (lipid component 32.0%, manufactured by CLEA Japan, Inc.) was used. As a sample water, 2.5% by weight of aqueous sucrose solution, 2.25% by weight of aqueous maltitol solution, and 4.5% by weight of aqueous maltitol solution obtained by respectively dissolving, as a test substance, sucrose (manufactured by Wako Pure Chemical Industries, Ltd.) and maltitol (Whole Crystalline Maltitol Ueno 60M, having maltitol purity of 90%, manufactured by Ueno Fine Chemicals Industry, Ltd.) in distilled water were used. Distilled water was used as a negative sample. The sample water was administered by making it available ad libitum and the amount of sample water intake was recorded. The dose of sucrose per day calculated from the concentration of the sample water and the water intake was 3 g per 1 kg of body weight. The dose of maltitol per day calculated in the same manner as above was 2.7 g per 1 kg of body weight in mice receiving 2.25% aqueous maltitol solution, and 4.5 g per 1 kg of body weight in mice receiving 4.5% aqueous maltitol solution. The diet and the sample water (test substance aqueous solution or distilled water) listed in Table 1 were administered to mice in each group, and the animals were fed for 8 weeks. After 8-week test feeding, pentobarbital of 0.5 mg/10 g of body weight was intraperitoneally administered to mice, and blood was collected from the tail vein under deep anesthesia. Further, by using Precision Xceed β-Ketone Measuring Electrode (manufactured by Abbott Japan Co., Ltd.), ketone bodies value in blood, which is an indicator of fat burning in the liver, was measured. A significant difference test by the t-test method was performed on blood AST values, blood ALT values, and blood ketone bodies values were evaluated by performing significant difference tests on these values via t-test.

The next experiment relates to NASH mice. The experiment can be described thus: Oil Red staining of liver, fat accumulation area % (Test Example 3). The experiment is classed as in vivo. As to conditions: for Fat accumulation area %, Significant difference: Student-t, 5% level. From the text: A solid diet CE-2 (lipid 4.6% by weight, manufactured by CLEA Japan, Inc.) was used as a normal diet. A solid diet, High Fat Diet 32 (lipid 32.0% by weight, sucrose 6.75% by weight, manufactured by CLEA Japan, Inc.), was used as a sucrose-containing high fat diet. As a maltitol-containing high-fat diet, a special diet (lipid 32.0% by weight, maltitol 6.08% by weight; manufactured by CLEA Japan, Inc.) obtained by replacing the total amount (6.75% by weight) of sucrose in a solid diet, High Fat Diet 32, with powdered maltitol (Whole Crystalline Maltitol Ueno 60M (purity of maltitol: 90%), manufactured by Ueno Fine Chemicals Industry Ltd.) was used. Sodium hypochlorite (PURELOX-S, manufactured by OYALOX Co., Ltd.) was added to pure water prepared by Elix-UV pure water producing apparatus, to a final concentration of 0.00009%, so that pure water for use in the test was obtained. An aqueous maltitol solution was prepared by dissolving powdered maltitol (Whole Crystalline Maltitol Ueno 60M (purity of maltitol: 90%), manufactured by Ueno Fine Chemicals Industry Ltd.) in pure water to a concentration of 1.8% (weight/volume). The purity of maltitol in the aqueous maltitol solution was 1.62%. Twenty-one female SPF mice (C57BL/6J, produced by CLEA Japan, Inc.) on day 14 of pregnancy were purchased and acclimation was performed. All animals were allowed to make a natural birth and a born male was used to produce a model. In addition, the weaning was at 4 weeks after birth. Streptozotocin (Sigma-Aldrich Japan K.K.) was adjusted to a concentration of 10 mg/mL with a physiological saline solution (manufactured by Otsuka Pharmaceutical Factory, Inc.) and the solution was subcutaneously administered once to the back of 2-day-old male mice at a dose of 20 μL/mouse (200 μg/mouse). Afterwards, the mother animal took care of the baby until weaning. The weaning was on day 28±2 after birth. After the weaning, a normal diet was supplied ad libitum to animals receiving no streptozotocin (normal mice (group S1 and group 1)), and a sucrose-containing high fat diet was supplied ad libitum to animals receiving streptozotocin (NASH mice (group S2, group 2, group 3, and group 4). A normal diet was supplied ad libitum to normal mice (group 1). With respect to NASH mice, a sucrose-containing high fat diet was supplied ad libitum to the sucrose group (group 2), and a maltitol-containing high fat diet was supplied ad libitum to the maltitol-low dose group (group 3) and the maltitol-high dose group (group 4). An aqueous maltitol solution was supplied ad libitum only to the maltitol-high dose group (group 4) of 5 to 8 weeks of age, and pure water was supplied ad libitum to the groups other than group 4 of 5 to 8 weeks of age. Six male animals per group were assigned to groups S1 and S2, reared up to 5 weeks of age, and then necropsied. Eight male animals per group were assigned to groups 1, 2, 3 and 4, reared up to 8 weeks of age, and then necropsied. At scheduled necropsy of the animals of 5 or 8 weeks of age, all individuals were anesthetized with diethyl ether (manufactured by Sigma-Aldrich Japan K.K.) and a needle through which heparin sodium (Novo Heparin Injection 1000, manufactured by Mochida Pharmaceutical Co., Ltd.) had been passed was punctured to the heart to aspirate the whole blood, leading to euthanasia, followed by harvest of the organ. With respect to animals of 5 or 8 weeks of age at scheduled necropsy, the left outer lobe of the liver was immersed in a neutral formalin solution (manufactured by Wako Pure Chemical Industries, Ltd.) for fixation at room temperature for 24 hours, subjected to sucrose substitution, embedded in a tray for cryosection (CRYO DISH manufactured by Shoei Works Co., Ltd.) filled with O.C.T. compound (manufactured by Sakura Finetek Japan Co., Ltd.), immediately frozen with liquid nitrogen, and preserved at −80° C. for oil red staining. […]

Structures are written as SMILES.

Take `OC[C@@H](O)[C@@H](O[C@H]1O[C@H](CO)[C@@H](O)[C@H](O)[C@H]1O)[C@H](O)[C@@H](O)CO` [maltitol]: the “Blood ketone bodies value, change in words” value in experiment [1] (Group 4 (2.25% aqueous maltitol solution) in comparison with group 3 (sucrose)) is listed as “significant improvement effect”; in experiment [1] (Group 5 (4.5% aqueous maltitol solution) relative to group 3 (sucrose)), “increased”. For the same compound, in experiment [1] (Group 4 (2.25% aqueous maltitol solution) relative to group 3 (sucrose), t-test), the “Blood ketone bodies value, Significant difference” value is reported as “*”. Moreover, the “Blood ketone bodies value (Mean ± Standard error)” value in experiment [1] (Group 4: high fat diet + 2.25% aqueous maltitol solution) came out at 0.20 ± 0.04 mmol/L; in experiment [1] (Group 5: high fat diet + 4.5% aqueous maltitol solution), 0.18 ± 0.05 mmol/L. Besides, the “Fat accumulation area %, Significant difference” value was “significantly low and Yes” in the experiment with NASH mice (Group 3 (low-dose maltitol) at 8 weeks vs group S2 at 5 weeks of age); “significantly low and Yes” with NASH mice (Group 4 (high-dose maltitol) at 8 weeks vs group S2 at 5 weeks of age). In addition, the “Fat accumulation area % (Oil Red staining), mean ± standard deviation” value in the experiment on NASH mice (Group 3, low-dose maltitol: HFD32-M (maltitol 6.08%) + pure water from 5 to 8 weeks of age) amounted to 32.7 ± 7.6%; in the experiment on NASH mice (Group 4, high-dose maltitol: HFD32-M (maltitol 6.08%) + aqueous maltitol solution 1.62% from 5 to 8 weeks of age), 28.6 ± 5.5%.

As to `OC[C@H]1O[C@@](CO)(O[C@H]2O[C@H](CO)[C@@H](O)[C@H](O)[C@H]2O)[C@@H](O)[C@@H]1O` [sucrose, reference compound], the “Blood ketone bodies value (Mean ± Standard error)” value in experiment [1] (Group 3: high fat diet + 2.5% aqueous sucrose solution) amounted to 0.08 ± 0.03 mmol/L. Also, the “Fat accumulation area %, Significant difference” value in the experiment on NASH mice (Group 2 (sucrose) at 8 weeks vs group S2 at 5 weeks of age) was “a significant difference was not observed and No”. The “Fat accumulation area % (Oil Red staining), mean ± standard deviation” value in the experiment with NASH mice (Group 2, sucrose group: HFD32 (sucrose 6.75%) + pure water, eight weeks of age) is reported as 34.7 ± 8.4%.
